The test system of one test is p53. Put plainly: p53 activation assay, p53 responsive luciferase reporter cell line. It counts as cell-based, human. The note with it: for p53 activation, active or inactive carbazole: structural analysis, FIGS. 6 and 7. The method, then:
The potency of a present carbazole compound is determined by measuring an ability of the compound to inhibit NF-κB activity or to activate p53. […] Theoretically, such assays of the dose-response effect of activator compounds can be described as a sigmoidal curve expressing a degree of activation as a function of concentration. The curve also theoretically passes through a point at which the concentration is sufficient to increase activity to a level that is 50% that of the difference between a baseline and the maximal activity in the assay. […] Determination of an EC50 value is made using conventional biochemical (acellular) assay techniques or cell-based assay techniques.
The potency of a carbazole compound is determined by measuring an ability of the compound to activate p53.
The p53 activation assay for determination of the EC50 value was performed as follows:
HT1080-L (human fibrosarcoma cells with ConALuc reporter)
RCC45ConALuc (human renal cell carcinoma cell line with ConALuc reporter)
1. Two types of standard cells were used, either HT1080-L or RCC45ConALuc cells. Both cell lines stably express a p53 responsive luciferase reporter construct.
2. HT1080-L cells were grown in DMEM medium containing 10% FBS. RCC45ConALuc cells were grown in RPMI medium containing 10% FBS (Pen/Strep can be added to a final concentration of 1%, if desired). Both cell lines were grown in a humidified incubator at 37° C. with 5% CO2. For normal culturing, both cell lines were split using 1× trypsin-EDTA at a ratio of 1:20 for HT1080-L and 1:5 for RCC45ConALuc cells every 3-4 days (when cells are 80-90% confluent).
3. A day before the experiment, the cells are trypsinized for about 5 minutes in 1× tripsin/EDTA solution in 37° C. incubator and plated in 96 well plates. HT1080-L cells were seeded at a density of 1×10^4/well in standard DMEM medium in a volume of 50 μl. RCC45ConALuc were seeded at a density of 2×10^4/well in the volume of 50 uL in standard RPMI medium.
4. The next day, various carbazole compounds were prepared by dilution of stock solutions in standard DMEM medium such that the cells were treated with the final chemical concentrations in Table 1 below. Stock solutions were made up in DMSO. Typically, chemicals were made up as 20 mM stock solutions.
5. Each tested compound used two rows of a 96-well plate, thus four compounds (e.g., W, X, Y, Z) were tested in one plate simultaneously. In addition to test compounds, each plate included positive and negative controls. As positive control, 9aa was used at a dose of 3 μM. As a negative control, DMSO was used in final concentration 0.1%.
1. Dilutions of chemicals added to the plate were made up as 2× concentrations in standard DMEM and added to corresponding well in a volume of 50 μl.
2. Chemicals were diluted in standard DMEM by two time serial dilutions starting from 40 μM (2× of highest concentration, e.g., 20 μM). For one cell line, the minimum volume was 125 μL of 2× working solution of chemical of each concentration in standard DMEM.
4. Sixteen hours following compound addition, all wells with the highest concentrations of compounds are checked microscopically for the presence of toxic effect, because death of cells caused by compounds may not allow detecting luciferase activity. If cytotoxocity is evident, other doses of the same compounds were checked for the presence of toxicity. The lowest dose causing toxic effect was recorded.
5. After microscopic examination, 15 μl of Bright Glo luciferase assay system were added to each well and after 5 min incubation at RT, the plates were read on a 96 well plate luminometer with a measurement time of 0.1 sec. A shaking step was included before measurement.
6. The folds of luciferase activation for each concentration of each chemical were calculated by dividing the detected luciferase activity at each chemical concentration by the average of the luciferase activity for the DMSO control on the same plate.
For orientation: Reporter assays use an easily measured gene product as a stand-in for the process of interest.

A further test relates to Bacillus subtilis. Description: antibacterial cytotoxicity assay, gram(+) bacteria (OD600). It is filed as cell-based. The note with it: B. subtilis, 48 hours, over a range of potencies; FIG. 13B. Here is the method: In vitro test to evaluate the effect of carbazole compounds on gram(-) and gram(+) bacteria. Two days prior to the start of the cytotoxicity assay, inoculate DH5-α and B. subtilis into 1 ml of corresponding media from glycerol stocks. Allow to grow during the course of the day at 37° C. with shaking. Streak each bacteria on the appropriate agar plates using a sterile inoculation loop and allow to grow overnight at 37° C. in the bacteria incubator. Using a sterile inoculation loop, pick a single colony of bacteria and inoculate 5 ml of the corresponding media in a 14 ml snap cap tube. Grow overnight ( 16 h) at 37° C. with shaking. […] Dilute 5 ml cultures of DH5-α and B. subtilis to an OD600 nm of 0.002, which corresponds to about 2×10^6 cells/ml in a volume sufficient for the experiment (dependent on the number of plates). Plate out 50 μl into each well of X 96-well plates (X=# plates needed for a given experiment). […] Chemicals for testing are prepared by dilution of stock solutions in LB Broth or Nutrient Broth for DH5-α and B. subtilis studies, respectively. Cells are treated with the final chemical concentrations presented in the scheme below (Table 2). Stock solutions are made up in DMSO. […] However, this concentration is dependent on the solubility of a given chemical and actual stock concentrations must be noted at time of experiment. Each library chemical to be tested requires 2 rows of a 96-well plate, thus 4 chemicals ([…]) can be tested in one plate simultaneously. In addition to test chemicals, each plate should include positive and negative controls. As positive control, ampicillin is used at 100 μg/ml. […] Dilutions of chemicals to be added to the plate are made up as 2× concentrations in appropriate bacteria media and added to corresponding wells in a volume of 50 μl. […] This process is repeated until all 10 2× doses are prepared. […] Following the addition of carbazole compounds to 96-well plates containing bacteria, plates are transferred to the 37° C. bacteria incubator for 48 hours. After the incubation, the OD600 mm for each well of the 96-well plates will be measured. […] The % DMSO control is plotted vs compound concentration to generate sigmoid shaped curves. After three runs are complete, the raw data for all three runs is used for IC50 calculations.

The next test concerns HB 101 E. coli. Put plainly: antibacterial cytotoxicity assay, gram(−) bacteria (OD600). It counts as cell-based. The settings on record: 48 hours, over a range of potencies, FIG. 13A.
A further test has as its system Bloodstream T. brucei. Description: T. brucei bloodstream form in vitro killing. It counts as cell-based, Trypanosoma brucei. The note with it: Trypanosoma brucei, read-out: IC50 (concentration that killed 50% of the parasites); bloodstream stage, 48 hrs of culture. Here is the method: Preliminary T. brucei inactivation experiments were performed in vitro. The life cycle of T. brucei involves a “procyclic” developmental stage in a tsetse fly, and a “bloodstream” form in humans. All studies were performed with the bloodstream stage of the parasite, because it is the disease-causing developmental stage.
Suramin, a conventional anti-HAT drug, was used as a positive control.
Bloodstream T. brucei was seeded (3×10^3 cells/mL) in 24-well (500 uL of the media per well) plate. […] Control cultures received equal volumes of DMSO.

The test system of test [1] is Plasmodium falciparum (strain D10). Put plainly: Plasmodium falciparum in vitro culture, infected erythrocytes. It is filed as cell-based. The note with it: tested at 29, 57, 143 nM or 143 nM only; FIG. 12. Here is the method: In particular, the effect of carbazole compounds on the malaria parasite was tested by culturing Plasmodium falciparum (strain D10) in vitro in the presence or absence of test compounds.
In each experiment, 1000 erythrocytes were assessed microscopically to determine the number of infected cells.

For test [2], the system named is Caki1 human renal cell carcinoma cells. Put plainly: Caki1 renal cell carcinoma xenograft efficacy test. The settings on record: Day 24 (end of treatment); oral gavage 5 day on/2 day off; Example 7 30, Example 15 5, Example 13 25, Sunitinib 40 mg/kg.
Method: In an efficacy test using these three compounds, athymic nude mice were inoculated subcutaneously with a suspension of Caki1 human renal cell carcinoma cells into both rear flanks. When at least one tumor in a mouse reached 20-50 mm^3, treatment was commenced. […] As a positive control, one group was treated with 40 mg/kg Sunitinib, an approved drug for the treatment of renal cell carcinoma. Treatment was given for 4 weeks on a 5 day on/2 day off schedule. After treatment was completed, mice were monitored for an additional 4 weeks to determine how quickly tumor growth returned to normal.
Where [3] appears, read: HT1080-L or RCC45ConALuc reporter cells, 16 h, read-out: EC50 value (p53 activation).
[4] abbreviates: Homo sapiens, 16 h, HT1080-L or RCC45ConALuc reporter cells, 16 h, read-out: EC50 value (p53 activation).
The mark [5] stands for this setting: Table 3, test compounds of the malaria experiment.
Where [6] appears, read: Homo sapiens, HT1080-L or RCC45ConALuc reporter cells, 16 h, read-out: EC50 value (p53 activation).

Where two headings read alike, the source gives them in different places.

A word on the EC50: it is the concentration that produces a half-maximal response.

In the case of `CN(C)CCCn1c2ccc([N+](=O)[O-])cc2c2cc([N+](=O)[O-])ccc21` [Example 21], the EC50 in the test with p53 (setting [3]) was determined as 0.83 µM. As for `CCN(CC)CCn1c2ccc(C(C)=O)cc2c2cc(C(C)=O)c(O)cc21` [Compound 19a], in the test on p53 (setting [4]), the concentration for a half-maximal effect (EC50) was found to be 0.4 µM. `CCCNCCCn1c2ccc(C(C)=O)cc2c2c3c(ccc21)C(=O)CC3` [Example 6, 9-Acetyl-6-[3-(propylamino)propyl]-1,6-dihydrocyclopenta[c]carbazol-3(2H)-one]: the half-maximal effective concentration (EC50) in the test on p53 (setting [3]) was found to be 0.24 µM. Take `CC(=O)c1ccc2c(c1)c1c3c(ccc1n2CCC1CCCN1C)C(=O)CC3` (centres unmarked) [Compound 18c-1]: the “antibacterial effect” value in the test on Bacillus subtilis and in the test on HB 101 E. coli was “antibacterial effect” throughout. The concentration giving a half-maximal response (EC50) with p53 (setting [4]) amounted to 0.08 µM. Consider `Cc1ccc(C(=O)Nc2ccc(S(=O)(=O)O)c3cc(S(=O)(=O)O)cc(S(=O)(=O)O)c23)cc1NC(=O)c1cccc(NC(=O)Nc2cccc(C(=O)Nc3cc(C(=O)Nc4ccc(S(=O)(=O)O)c5cc(S(=O)(=O)O)cc(S(=O)(=O)O)c45)ccc3C)c2)c1` [Suramin, reference compound], for which the IC50 with Bloodstream T. brucei is greater than 300 nM. `CC(=O)c1cc2c3cc(C(C)=O)c(O)cc3n(CCCN(C)C)c2cc1O` [Example 12]: the “antibacterial effect” value in the test with Bacillus subtilis and in the test on HB 101 E. coli was “antibacterial effect” in each case. On to `CCN(CC)CCn1c2ccc(C(=O)NC)cc2c2cc(C(=O)NC)ccc21` [Example 27], for which the 50% effective concentration (EC50) in the test with p53 (setting [4]) was determined as 0.54 µM. Turning to `CCCCCn1c2ccc(C(C)=O)cc2c2c3c(ccc21)C(=O)CC3` [Compound 500, reference compound], the “anti-malarial activity, parasitemia reduction” value in test [1] is reported as “no parasitemia reduction”. The “EC50, μM (p53 activation assay)” value with p53 (setting [5]) is “Inactive”.

For the molecule `O=[N+]([O-])c1ccc2c(c1)c1cc([N+](=O)[O-])ccc1n2CCCN1CCCC1` [Example 24], the EC50 in the test on p53 (setting [6]) came to 0.78 µM. As for `CC(=O)c1ccc2c(c1)c1cc(C(C)=O)ccc1n2CCCN(C)C` [Compound 3b], the concentration for a half-maximal effect (EC50) with p53 (setting [4]) is 0.49 µM.

For `CCN(CC)CCn1c2ccc(C(C)=O)cc2c2cc(C(C)=O)ncc21` [Compound 300, reference compound], in the test with p53, the “p53 activation, active or inactive carbazole” value is recorded as “active”.

Consider `CCN(CC)CCNC(=O)c1c(C)[nH]c(/C=C2\C(=O)Nc3ccc(F)cc32)c1C` [Sunitinib, reference compound], for which the “tumor growth inhibition compared to the vehicle control” value in test [2] was found to be 42%. Turning to `CC(=O)c1ccc2c(c1)c1c3c(ccc1n2CC[C@@H]1CCCN1C)C(=O)CC3` [Compound 18c-2], the EC50 with p53 (setting [4]) was found to be 0.1 µM. `CN(C)CCCN(c1ccccc1)c1ccc2c(c1)CCC2=O` [Compound 200, reference compound]: the “p53 activation, active or inactive carbazole” value with p53 is “inactive”. In the case of `CCN(CC)CCn1c2ccccc2c2cc(C(C)=O)ncc21.Cl` [Compound 400, reference compound], the “anti-malarial activity, parasitemia reduction” value in test [1] is reported as “no parasitemia reduction”. Besides, the “EC50, μM (p53 activation assay)” value with p53 (setting [5]) is given as “Inactive”.

For the molecule `CCN(CC)CCn1c2ccccc2c2cc(C(C)=O)c(O)cc21` [Compound 22, 3-Acetyl-2-hydroxy-9-N,N-diethylaminoethylcarbazole], the EC50 with p53 (setting [3]) was 0.53 µM. As to `CC(=O)c1ccc2c(c1)c1cc(C(C)=O)ccc1n2CCC1CCCN1C` (centres unmarked) [Compound 3e], the EC50 in the test with p53 (setting [4]) was 0.78 µM. The same measure, in the same setting: as for `CC(=O)c1cc2c3c4c(ccc3n(CCCN(C)C)c2cc1O)C(=O)N(C)C4` [Compound 19e], the figure is 0.07 µM; as for `CCCNCCCn1c2ccc3c(c2c2c4c(ccc21)C(=O)CC4)CCC3=O` [Example 14], 0.05 µM.

Turning to `CNCCCn1c2ccc([N+](=O)[O-])cc2c2cc([N+](=O)[O-])ccc21` [Example 25], in the test with p53 (setting [6]), the concentration for a half-maximal effect (EC50) came out at 0.88 µM.

For `CCN(CC)CCCC(C)Nc1c2ccc(Cl)cc2nc2ccc(OC)cc12` (centres unmarked) [Quinacrine, reference compound], in the test with p53 (Homo sapiens, Table 3, test compounds of the malaria experiment, read-out: EC50, μM (p53 activation assay)), the EC50 was roughly 5 µM. In the case of `CCN(CC)CCn1c2ccc(C(C)=O)cc2c2cc(C(C)=O)ccc21` [Compound 3a], the concentration giving a half-maximal response (EC50) in the test on p53 (setting [4]) was found to be 0.29 µM.

As to `CCC(=O)c1ccc2c(c1)c1cc(C(=O)CC)ccc1n2CCCN(C)C` [Compound 7d], the 50% effective concentration (EC50) in the test with p53 (setting [4]) was found to be 0.64 µM. In the case of `CC(=O)c1cc2c3c4c(ccc3n(CCCN(C)C)c2cc1O)C(=O)CC4` [Example 4, 9-Acetyl-6-[3-(dimethylamino)propyl]-8-hydroxy-1,6-dihydrocyclopenta[c]carbazol-3(2H)-one], the “antibacterial effect” value in the test with Bacillus subtilis and with HB 101 E. coli was “antibacterial effect” throughout. Moreover, the EC50 in the test on p53 (Homo sapiens, 16 h, read-out: EC50 value (p53 activation, μM)) was 0.07 µM. With `CCN(CC)CCCn1c2ccc([N+](=O)[O-])cc2c2cc([N+](=O)[O-])ccc21` [Example 23], in the test with p53 (setting [6]), the EC50 was found to be 0.88 µM.
